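Following 48 hours of exposure in 96-well plates, responses at five concentrations were used to interpolate endpoints linearly. Abbreviation: GI50, concentration required for 50% inhibition of growth.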 Active and inactive are the calls of the source. No stated cut-off is given here; in the data, active = GI50 up to about 1.1 µM and inactive = higher.
Tests used:
Experiment in all cases: inhibition of tumour cell growth, NCI panel, 48 h
SNB-19 = test system: SNB-19
HOP-92 = test system: HOP-92
HCT-15 = test system: HCT-15
NCI-H522 = test system: NCI-H522
M14 = test system: M14
Malme-3M = test system: Malme-3M
SF-268 = test system: SF-268
UACC-62 = test system: UACC-62
MOLT-4 = test system: MOLT-4
LXFL 529 = test system: LXFL 529
EKVX = test system: EKVX
COLO 205 = test system: COLO 205
SR = test system: SR
SN12C = test system: SN12C
DMS-273 = test system: DMS-273
NCI-H226 = test system: NCI-H226
HOP-62 = test system: HOP-62
SF-539 = test system: SF-539
M19-MEL = test system: M19-MEL
SNB-78 = test system: SNB-78
HCC 2998 = test system: HCC 2998
HCT-116 = test system: HCT-116
OVCAR-5 = test system: OVCAR-5
SK-OV-3 = test system: SK-OV-3
A498 = test system: A498
LOX IMVI = test system: LOX IMVI
KM12 = test system: KM12
NCI-H460 = test system: NCI-H460
SNB-75 = test system: SNB-75
ACHN = test system: ACHN
RPMI-8226 = test system: RPMI-8226
TK-10 = test system: TK-10
HOP-18 = test system: HOP-18
OVCAR-3 = test system: OVCAR-3
NCI-H23 = test system: NCI-H23
U-251 = test system: U-251
KM-20L2 = test system: KM-20L2
SF-295 = test system: SF-295
RXF 393 = test system: RXF 393
OVCAR-4 = test system: OVCAR-4
K562 = test system: K562
OVCAR-8 = test system: OVCAR-8
IGROV-1 = test system: IGROV-1
786-0 = test system: 786-0
UACC-257 = test system: UACC-257
UO-31 = test system: UO-31
SW-620 = test system: SW-620
HT-29 = test system: HT-29
CAKI-1 = test system: CAKI-1
CCRF-CEM = test system: CCRF-CEM
XF498 = test system: XF498
SK-MEL-28 = test system: SK-MEL-28
SK-MEL-5 = test system: SK-MEL-5
SK-MEL-2 = test system: SK-MEL-2
DMS-114 = test system: DMS-114
A549 = test system: A549
MDA-MB-435 = test system: MDA-MB-435
BT-549 = test system: BT-549
HL-60 = test system: HL-60
DLD-1 = test system: DLD-1
DU-145 = test system: DU-145
MDA-N = test system: MDA-N
Hs-578T = test system: Hs-578T
T47D = test system: T47D
MCF7 = test system: MCF7
MDA-MB-231 = test system: MDA-MB-231
PC-3 = test system: PC-3
NCI/ADR-RES = test system: NCI/ADR-RES

Cc1c(C(=O)CC(=O)C(=O)Nc2cc(Cl)ccc2Cl)[n+]([O-])c2ccccc2[n+]1[O-] was tested, and the GI50 (SNB-19) was 45.5 µM (inactive), the GI50 (HOP-92) was > 100 µM (inactive) and the GI50 (HCT-15) was 29 µM. The GI50 (NCI-H522) was 23.1 µM (inactive), the GI50 (M14) was 25.3 µM (inactive) and the GI50 (Malme-3M) was 43.6 µM (inactive). The GI50 (SF-268) was 33.4 µM (inactive), the GI50 (UACC-62) was 19.5 µM (inactive) and the GI50 (MOLT-4) was 26.6 µM (inactive). The GI50 (LXFL 529) was 45.6 µM (inactive), the GI50 (EKVX) was 37.8 µM (inactive) and the GI50 (COLO 205) was 31.4 µM (inactive). For the same compound, the GI50 (SR) was 28.4 µM (inactive), the GI50 (SN12C) was 36.8 µM (inactive) and the GI50 (DMS-273) was 26.1 µM (inactive). For the same compound, the GI50 (NCI-H226) was > 100 µM (inactive), the GI50 (HOP-62) was > 100 µM (inactive) and the GI50 (SF-539) was 47.8 µM (inactive). The GI50 (M19-MEL) was 25 µM (inactive), the GI50 (SNB-78) was 50.1 µM (inactive) and the GI50 (HCC 2998) was 37.7 µM (inactive). The GI50 (HCT-116) was 35.4 µM (inactive), the GI50 (OVCAR-5) was > 100 µM (inactive) and the GI50 (SK-OV-3) was > 100 µM (inactive). The GI50 (A498) was > 100 µM (inactive), the GI50 (LOX IMVI) was 27.4 µM (inactive) and the GI50 (KM12) was 37.3 µM (inactive). The GI50 (NCI-H460) was 37 µM (inactive), the GI50 (SNB-75) was 33.6 µM (inactive) and the GI50 (ACHN) was > 100 µM (inactive). The GI50 (RPMI-8226) was 21.7 µM (inactive), the GI50 (TK-10) was > 100 µM (inactive) and the GI50 (HOP-18) was 34.1 µM (inactive). For the same compound, the GI50 (OVCAR-3) was 19.9 µM (inactive), the GI50 (NCI-H23) was 21.5 µM (inactive) and the GI50 (U-251) was 34.8 µM (inactive). The GI50 (KM-20L2) was 36.1 µM (inactive), the GI50 (SF-295) was > 100 µM (inactive) and the GI50 (RXF 393) was 53.8 µM (inactive). The GI50 (OVCAR-4) was 46.1 µM (inactive), the GI50 (K562) was 72.4 µM (inactive) and the GI50 (OVCAR-8) was 30.7 µM (inactive). The GI50 (IGROV-1) was 36.9 µM (inactive), the GI50 (786-0) was 61.5 µM (inactive) and the GI50 (UACC-257) was 34.8 µM (inactive). For the same compound, the GI50 (UO-31) was > 100 µM (inactive), the GI50 (SW-620) was 36 µM (inactive) and the GI50 (HT-29) was 28.5 µM (inactive). The GI50 (CAKI-1) was > 100 µM (inactive), the GI50 (CCRF-CEM) was 73.8 µM (inactive) and the GI50 (XF498) was 51.3 µM (inactive). The GI50 (SK-MEL-28) was 43.1 µM (inactive), the GI50 (SK-MEL-5) was 32.6 µM (inactive) and the GI50 (SK-MEL-2) was 37.9 µM (inactive). For the same compound, the GI50 (DMS-114) was 25.9 µM (inactive) and the GI50 (A549) was 40.1 µM (inactive).

In the case of C[C@@H](CN1CC(=O)NC(=O)C1)N1CC(=O)NC(=O)C1 [DEXRAZOXANE], the GI50 (SNB-19) is reported as 279 µM (inactive), the GI50 (MDA-MB-435) is reported as 395 µM (inactive) and the GI50 (HOP-92) is reported as 196 µM (inactive). For the same compound, the GI50 (HCT-15) was 122 µM, the GI50 (NCI-H522) was 67.8 µM (inactive) and the GI50 (M14) was 360 µM (inactive). The GI50 (Malme-3M) was 165 µM (inactive), the GI50 (SF-268) was 378 µM (inactive) and the GI50 (UACC-62) was 147 µM (inactive). The GI50 (MOLT-4) was 15.8 µM (inactive), the GI50 (EKVX) was 173 µM (inactive) and the GI50 (COLO 205) was 12.5 µM (inactive). For the same compound, the GI50 (SR) was 93.1 µM (inactive), the GI50 (SN12C) was 232 µM (inactive) and the GI50 (BT-549) was 230 µM (inactive). For the same compound, the GI50 (HL-60) was 51.1 µM (inactive), the GI50 (DMS-273) was 218 µM (inactive) and the GI50 (NCI-H226) was 101 µM (inactive). For the same compound, the GI50 (HOP-62) was 66.8 µM (inactive), the GI50 (DLD-1) was 424 µM (inactive) and the GI50 (SF-539) was 332 µM (inactive). The GI50 (DU-145) was 255 µM (inactive), the GI50 (M19-MEL) was 311 µM (inactive) and the GI50 (SNB-78) was 435 µM (inactive). For the same compound, the GI50 (HCC 2998) was 473 µM (inactive), the GI50 (MDA-N) was 241 µM (inactive) and the GI50 (HCT-116) was 118 µM (inactive). For the same compound, the GI50 (OVCAR-5) was 372 µM (inactive), the GI50 (SK-OV-3) was 227 µM (inactive) and the GI50 (Hs-578T) was 320 µM (inactive). The GI50 (A498) was 221 µM (inactive), the GI50 (LOX IMVI) was 236 µM (inactive) and the GI50 (KM12) was 522 µM (inactive). For the same compound, the GI50 (NCI-H460) was 6.67 µM (inactive), the GI50 (SNB-75) was 318 µM (inactive) and the GI50 (ACHN) was 139 µM (inactive). The GI50 (RPMI-8226) was 327 µM (inactive), the GI50 (TK-10) was 222 µM (inactive) and the GI50 (T47D) was 109 µM (inactive). For the same compound, the GI50 (HOP-18) was 422 µM (inactive), the GI50 (OVCAR-3) was 224 µM (inactive) and the GI50 (NCI-H23) was 125 µM (inactive). The GI50 (U-251) was 228 µM (inactive), the GI50 (MCF7) was 24.4 µM (inactive) and the GI50 (KM-20L2) was 123 µM (inactive). For the same compound, the GI50 (MDA-MB-231) was 168 µM (inactive), the GI50 (SF-295) was 259 µM (inactive) and the GI50 (RXF 393) was 272 µM (inactive). The GI50 (OVCAR-4) was 115 µM (inactive), the GI50 (K562) was 301 µM (inactive) and the GI50 (OVCAR-8) was 282 µM (inactive). The GI50 (IGROV-1) was 356 µM (inactive), the GI50 (786-0) was 266 µM (inactive) and the GI50 (UACC-257) was 492 µM (inactive). The GI50 (UO-31) was 354 µM (inactive), the GI50 (SW-620) was 57.5 µM (inactive) and the GI50 (PC-3) was 180 µM (inactive). For the same compound, the GI50 (HT-29) was 110 µM (inactive), the GI50 (CAKI-1) was 90.6 µM (inactive) and the GI50 (CCRF-CEM) was 21.4 µM (inactive). The GI50 (XF498) was 102 µM (inactive), the GI50 (SK-MEL-28) was 458 µM (inactive) and the GI50 (SK-MEL-5) was 174 µM (inactive). For the same compound, the GI50 (SK-MEL-2) was 246 µM (inactive), the GI50 (DMS-114) was 70.5 µM (inactive) and the GI50 (A549) was 37.2 µM (inactive). The GI50 (NCI/ADR-RES) was 282 µM (inactive).

From ChEMBL document CHEMBL1201862, “PubChem BioAssay data set” (2004)
